We go through one compound from patent publication EP0462071B1, “Pharmaceutical resorption-improved somatostatin compositions, their preparation and use” (SANDOZ LTD., priority 1990, dated 1991).

Like-named read-outs stand apart in the source and are kept apart here.

A short description of this data set: Resorption of octreotide after injection of a solution into the jejunum of anaesthetised rats; plasma concentration by radio-immunoassay. The data set is classed as in vivo, Wistar rats. Particulars: for AUC(0-t): area under the curve over 2 hours. The procedure: Wistar rats (about 300 g body weight) were fasted for 12 hours and anaesthetised with urethane (2 doses of […] i.p.). The abdomen was opened to gain access to the gastrointestinal tract in particular the jejunum. A solution of the pharmaceutical composition according to the invention or of the somatostatin as a control or of a somatostatin in combination with sodium taurocholate, a resorption enhancer, known to be used in combination with e.g. salmon calcitonin or insulin for an improved resorption through the mucous membrane of the gastrointestinal tract, was injected into the gastrointestinal tract, e.g. the jejunum. Blood samples (e.g. 1 ml) are obtained 20 minutes, and 1 and 2 hours after administration from the vena cava. The blood is centrifuged and the somatostatin concentration in the plasma determined in conventional manner using a radio-immunoassay method.
The relative bioavailability (AUCo² = Area under the curve over 2 hours) is determined and expressed in the following table, in which the AUC is expressed as ng/ml.hour and Cmax as ng/ml: TABLE A

As usually defined, the Cmax is the peak of the concentration-time curve. As to `C[C@@H](O)[C@@H]1NC(=O)[C@H](CCCCN)NC(=O)[C@@H](Cc2c[nH]c3ccccc23)NC(=O)[C@H](Cc2ccccc2)NC(=O)[C@@H](NC(=O)[C@H](N)Cc2ccccc2)CSSC[C@@H](C(=O)N[C@H](CO)[C@@H](C)O)NC1=O` [100 microg. of octreotide (reference), Octreotide], for the setting “Wistar, rat, 100 microg., octreotide in plasma, 0.5 ml of NaCl (0.9 % W/V) solution injected into the jejunum, sem in the next column”, the Cmax turned out to be 2.23 ng/mL. Also, the AUC(0-t) is, setting by setting: (Wistar, rat, 100 microg., octreotide in plasma, 0.5 ml of NaCl (0.9 % W/V) solution injected into the jejunum, blood samples at 20 minutes, 1 and 2 hours, read-out: AUCo² median) 2.06 ng·h/mL; (Wistar, rat, plasma, 100 microg., octreotide in plasma, 0.5 ml of NaCl (0.9 % W/V) solution injected into the jejunum, sem in the next column, read-out: AUCo² mean) 2.26 ng·h/mL. For the setting “relative to 100 microg. of octreotide alone (reference = 100 %), values correspond to the ratio of the median AUCo²”, the Bioavail. rel. % is listed as 100%.
